#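 Tested at 5 concentrations; 48 h exposure; 96-well plates; endpoints linearly interpolated, else capped at highest concentration. The concentration for 50% growth inhibition is given as GI50.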 Calls of active or inactive are those of the source. No stated cut-off is given here; in the data, active = GI50 up to about 1.1 µM and inactive = higher.
# Columns and labels:
# Assay in all cases: NCI tumour cell line growth inhibition, 48 h
# [1] = test system: K562
# [2] = test system: PC-3
# [3] = test system: UACC-62
# [4] = test system: Malme-3M
# [5] = test system: NCI-H522
# [6] = test system: SR
# [7] = test system: NCI-H23
# [8] = test system: LOX IMVI
# [9] = test system: Hs-578T
# [10] = test system: SW-620
# [11] = test system: SF-268
# [12] = test system: SN12C
# [13] = test system: HCC 2998
# [14] = test system: HL-60
# [15] = test system: IGROV-1
# [16] = test system: 786-0
# [17] = test system: RPMI-8226
# [18] = test system: CCRF-CEM
# [19] = test system: SK-MEL-28
# [20] = test system: COLO 205
# [21] = test system: HOP-62
# [22] = test system: M14
# [23] = test system: HT-29
# [24] = test system: HOP-92
# [25] = test system: HCT-116
# [26] = test system: EKVX
# [27] = test system: BT-549
# [28] = test system: U-251
# [29] = test system: T47D
# [30] = test system: UACC-257
# [31] = test system: ACHN
# [32] = test system: OVCAR-8
# [33] = test system: NCI-H460
# [34] = test system: A549
# [35] = test system: MDA-N
# [36] = test system: HCT-15
# [37] = test system: OVCAR-5
# [38] = test system: MDA-MB-435
# [39] = test system: SK-MEL-5
# [40] = test system: A498
# [41] = test system: SK-OV-3
# [42] = test system: CAKI-1
# [43] = test system: RXF 393
# [44] = test system: MDA-MB-231
# [45] = test system: NCI/ADR-RES
# [46] = test system: DU-145
# [47] = test system: SNB-75
# [48] = test system: OVCAR-4
# [49] = test system: KM12
# [50] = test system: SF-295
# [51] = test system: NCI-H226
# [52] = test system: OVCAR-3
# [53] = test system: SK-MEL-2
# [54] = test system: MCF7
# [55] = test system: SNB-19
# [56] = test system: UO-31
# [57] = test system: MOLT-4
# [58] = test system: SF-539
# [59] = test system: TK-10
compound,measurement,setting,value
CC(=O)Nc1nc(Cl)cc(NCC2(CO)CCC2)n1,GI50,[1],> 100 µM (inactive)
same,GI50,[2],> 100 µM (inactive)
same,GI50,[3],> 100 µM (inactive)
same,GI50,[4],> 100 µM (inactive)
same,GI50,[5],> 100 µM (inactive)
same,GI50,[6],> 100 µM (inactive)
same,GI50,[7],> 100 µM (inactive)
same,GI50,[8],> 100 µM (inactive)
same,GI50,[9],> 100 µM (inactive)
same,GI50,[10],> 100 µM (inactive)
same,GI50,[11],> 100 µM (inactive)
same,GI50,[12],> 100 µM (inactive)
same,GI50,[13],> 100 µM (inactive)
same,GI50,[14],> 100 µM (inactive)
same,GI50,[15],> 100 µM (inactive)
same,GI50,[16],> 100 µM (inactive)
same,GI50,[17],> 100 µM (inactive)
same,GI50,[18],> 100 µM (inactive)
same,GI50,[19],> 100 µM (inactive)
same,GI50,[20],> 100 µM (inactive)
same,GI50,[21],> 100 µM (inactive)
same,GI50,[22],> 100 µM (inactive)
same,GI50,[23],> 100 µM (inactive)
same,GI50,[24],> 100 µM (inactive)
same,GI50,[25],> 100 µM (inactive)
same,GI50,[26],> 100 µM (inactive)
same,GI50,[27],> 100 µM (inactive)
same,GI50,[28],> 100 µM (inactive)
same,GI50,[29],> 100 µM (inactive)
same,GI50,[30],> 100 µM (inactive)
same,GI50,[31],> 100 µM (inactive)
same,GI50,[32],> 100 µM (inactive)
same,GI50,[33],> 100 µM (inactive)
same,GI50,[34],> 100 µM (inactive)
same,GI50,[35],> 100 µM (inactive)
same,GI50,[36],> 100 µM
same,GI50,[37],> 100 µM (inactive)
same,GI50,[38],> 100 µM (inactive)
same,GI50,[39],> 100 µM (inactive)
same,GI50,[40],> 100 µM (inactive)
same,GI50,[41],> 100 µM (inactive)
same,GI50,[42],> 100 µM (inactive)
same,GI50,[43],> 100 µM (inactive)
same,GI50,[44],> 100 µM (inactive)
same,GI50,[45],> 100 µM (inactive)
same,GI50,[46],> 100 µM (inactive)
same,GI50,[47],> 100 µM (inactive)
same,GI50,[48],> 100 µM (inactive)
same,GI50,[49],> 100 µM (inactive)
same,GI50,[50],> 100 µM (inactive)
same,GI50,[51],> 100 µM (inactive)
same,GI50,[52],> 100 µM (inactive)
same,GI50,[53],> 100 µM (inactive)
same,GI50,[54],> 100 µM (inactive)
same,GI50,[55],> 100 µM (inactive)
same,GI50,[56],> 100 µM (inactive)
same,GI50,[57],> 100 µM (inactive)
N=C(N)NS(=O)(=O)c1ccc(NCc2cccc3c(=O)c4ccc(Cl)cc4oc23)cc1,GI50,[1],2.84 µM (inactive)
same,GI50,[2],1.4 µM (inactive)
same,GI50,[3],6.19 µM (inactive)
same,GI50,[4],4.59 µM (inactive)
same,GI50,[6],2.08 µM (inactive)
same,GI50,[7],8.55 µM (inactive)
same,GI50,[8],4.48 µM (inactive)
same,GI50,[9],4.37 µM (inactive)
same,GI50,[10],5.41 µM (inactive)
same,GI50,[11],4.33 µM (inactive)
same,GI50,[12],> 9.27 µM (inactive)
same,GI50,[13],> 15.3 µM (inactive)
same,GI50,[14],1.38 µM (inactive)
same,GI50,[15],3.43 µM (inactive)
same,GI50,[16],9.1 µM (inactive)
same,GI50,[17],4.61 µM (inactive)
same,GI50,[18],1.82 µM (inactive)
same,GI50,[58],6.11 µM (inactive)
same,GI50,[19],> 12.2 µM (inactive)
same,GI50,[20],> 11.6 µM (inactive)
same,GI50,[21],> 10.2 µM (inactive)
same,GI50,[22],6.7 µM (inactive)
same,GI50,[23],5.71 µM (inactive)
same,GI50,[24],3.86 µM (inactive)
same,GI50,[25],2.99 µM (inactive)
same,GI50,[26],> 9.53 µM (inactive)
same,GI50,[27],7.18 µM (inactive)
same,GI50,[28],5.22 µM (inactive)
same,GI50,[29],> 6.18 µM (inactive)
same,GI50,[30],11.1 µM (inactive)
same,GI50,[31],7.6 µM (inactive)
same,GI50,[32],7.52 µM (inactive)
same,GI50,[33],3.15 µM (inactive)
same,GI50,[34],> 6.75 µM (inactive)
same,GI50,[35],5.27 µM (inactive)
same,GI50,[36],4.93 µM
same,GI50,[37],> 10.1 µM (inactive)
same,GI50,[38],5.04 µM (inactive)
same,GI50,[39],9.4 µM (inactive)
same,GI50,[59],> 10.4 µM (inactive)
same,GI50,[40],> 9.02 µM (inactive)
same,GI50,[41],> 10.3 µM (inactive)
same,GI50,[42],8.53 µM (inactive)
same,GI50,[43],3.08 µM (inactive)
same,GI50,[44],> 10.8 µM (inactive)
same,GI50,[45],7.8 µM (inactive)
same,GI50,[46],5.57 µM (inactive)
same,GI50,[47],3.08 µM (inactive)
same,GI50,[48],> 11.2 µM (inactive)
same,GI50,[49],3.25 µM (inactive)
same,GI50,[50],> 9.35 µM (inactive)
same,GI50,[51],> 25 µM (inactive)
same,GI50,[52],> 8.47 µM (inactive)
same,GI50,[53],> 10.4 µM (inactive)
same,GI50,[54],7.45 µM (inactive)
same,GI50,[55],5.97 µM (inactive)
same,GI50,[56],5.41 µM (inactive)
same,GI50,[57],3.57 µM (inactive)
